Literature values, collected in US20060074053A1, “Ophthalmic solution containing quinolone antimicrobial compound” (SANTEN PHARMACEUTICAL CO., LTD., priority 2003, published 2006).

Details: after instillation of ciprofloxacin-containing ophthalmic solution; Am. J. Ophthalmol., 117, pp 258-259 (1994)

SMILES: O=C(O)c1cn(C2CC2)c2cc(N3CCNCC3)c(F)cc2c1=O [ciprofloxacin]
- precipitate on the surface of the eyes after instillation: liberated as a precipitate on the surface of the eyes (corneal epithelium)
